Source: patent US10358683B2, “Compositions and methods for determining whether a subject would benefit from co-receptor inhibitor therapy” (priority 2007, dated 2019)
Read-outs that look alike come from different tables or passages of the source.

Tests used:
Clone 11 (R5 >> X4_2) = type: cell-based, HIV-1; settings: PBMCs; Clone 11 envelope in NL4-3 infectious clone, tropism subtype R5 >> X4
Experimental: (§1) First, 35 gp160 envelope genes derived from different patient samples that were originally identified as dual-tropic were cloned into an expression vector as described in Example 1. Tropism of pseudotyped virus was determined by measuring luciferase activity (relative light units, RLU) following infection of U87/CD4+CCR5+ or U87/CD4+CXCR4+ cells as described above. Inhibition of infection by small molecule CCR5-(Merck) and CXCR4-(AMD3100; AnorMED) inhibitors was examined on U87/CD4+CCR5+CXCR4+ cells, U87/CD4+CXCR4+ cells, and U87/CD4+CCR5+ cells. A subset of the envelope genes were also inserted into an NL4-3 infectious clone and evaluated for their ability to infect PBMCs in the presence of the CCR5- or CXCR4-inhibitors.

Clone 22 (R5~X4_4) = type: cell-based, HIV-1; settings: PBMCs; Clone 22 envelope in NL4-3 infectious clone, tropism subtype R5~X4
Experimental: as §1

Clone 25 (R5~X4_2) = type: cell-based, HIV-1; settings: PBMCs; Clone 25 envelope in NL4-3 infectious clone, tropism subtype R5~X4
Experimental: as §1

Clone 26 (R5~X4_1) = type: cell-based, HIV-1; settings: PBMCs; Clone 26 envelope in NL4-3 infectious clone, tropism subtype R5~X4
Experimental: as §1

Clone 28 (R5~X4_3) = type: cell-based, HIV-1; settings: PBMCs; Clone 28 envelope in NL4-3 infectious clone, tropism subtype R5~X4
Experimental: as §1

Clone 31 (X4 >> R5_3) = type: cell-based, HIV-1; settings: PBMCs; Clone 31 envelope in NL4-3 infectious clone, tropism subtype X4 >> R5
Experimental: as §1

Clone 33 (X4 >> R5_2) = type: cell-based, HIV-1; settings: PBMCs; Clone 33 envelope in NL4-3 infectious clone, tropism subtype X4 >> R5
Experimental: as §1

Clone 34 (X4 >> R5_1) = type: cell-based, HIV-1; settings: PBMCs; Clone 34 envelope in NL4-3 infectious clone, tropism subtype X4 >> R5
Experimental: as §1

Clone 4 (R5 >> X4_1) = type: cell-based, HIV-1; settings: PBMCs; Clone 4 envelope in NL4-3 infectious clone, tropism subtype R5 >> X4
Experimental: as §1

JRCSF (R5) = type: cell-based, HIV-1; settings: PBMCs, tropism subtype R5
Experimental: as §1

NL43 (X4) = type: cell-based, HIV-1; settings: PBMCs; NL43, tropism subtype X4
Experimental: as §1

[1] = test system: primarily CCR5-tropic viruses; type: cell-based, HIV-1; settings: primarily CCR5-tropic viruses into CCR5- and CXCR4-expressing cells
Experimental: (§2) Susceptibility assays for HIV-1 entry inhibitors were performed using packaging host cells consisting of the human embryonic kidney cell line 293 (Cell Culture Facility, UC San Francisco, SF, Calif.) and target host cells consisting of a human osteosarcoma (HOS) cell line expressing CD4 (HT4) plus CCR5, and CXCR4, or astrocytoma (U-87) cell lines expressing either CD4 and CCR5 or CD4 and CXCR4.
(§3) Drug susceptibility testing was performed using pHIVenv and pHIVluc or pHIVlucΔU3. Pseudotyped HIV particles containing envelope proteins encoded by the subject derived segment were produced by transfecting a packaging host cell (HEK 293) with resistance test vector DNA. […] After infection (˜72 h) the target cells are lysed and luciferase activity is measured. […] The amount of luciferase activity detected in the infected cells is used as a direct measure of “infectivity” (FIGS. 1 and 2). […]
(§4) Drug susceptibility is assessed by comparing the infectivity in the absence of drug to infectivity in the presence of drug. […]
(§5) First, 35 gp160 envelope genes derived from different patient samples that were originally identified as dual-tropic were cloned into an expression vector as described in Example 1. Tropism of pseudotyped virus was determined by measuring luciferase activity (relative light units, RLU) following infection of U87/CD4+CCR5+ or U87/CD4+CXCR4+ cells as described above. […]

[2] = test system: primarily CXCR4-tropic viruses; assay: Entry of pseudotyped viruses into U87 cells in presence of co-receptor inhibitors (FIG. 5); type: cell-based, HIV-1
Experimental: as §2, §3, §4, §5

Dual_X-tropic viruses = settings: fully replication competent Dual_X-tropic viruses, PBMCs
Experimental: as §1

dual-tropic viruses = assay: Infection of PBMCs by fully replication competent viruses (FIG. 7, summary); type: cell-based, HIV-1
Experimental: as §1

[3] = test system: dual-tropic HIV-1 variants; settings: for suppression of CXCR4-tropic virus: patients, 10 days of therapy
Experimental: First, samples from 26 subjects administered AMD3100 for 10 days were obtained prior to therapy and on day 11 following the 10 days of therapy. Co-receptor tropism of the viral populations from both sets of samples were then determined according to Example 1. […] 37(2):1253-62.

[4] = subjects with mixed populations, following treatment

## c1cc(CN2CCCNCCNCCCNCC2)ccc1CN1CCCNCCNCCCNCC1 [AMD, AMD3100]
Clone 11 (R5 >> X4_2)
  % inhibition: −3%
Clone 22 (R5~X4_4)
  % inhibition: −12%
Clone 25 (R5~X4_2)
  % inhibition: 27%
Clone 26 (R5~X4_1)
  % inhibition: 41%
Clone 28 (R5~X4_3)
  % inhibition: 19%
Clone 31 (X4 >> R5_3)
  % inhibition: 98%
Clone 33 (X4 >> R5_2)
  % inhibition: 99%
Clone 34 (X4 >> R5_1)
  % inhibition: 99%
Clone 4 (R5 >> X4_1)
  % inhibition: −1%
JRCSF (R5)
  % inhibition: 11%
NL43 (X4)
  % inhibition: 99%
[1]
  inhibition of entry: not inhibited
[2]; primarily CXCR4-tropic viruses into CCR5- and CXCR4-expressing cells
  inhibition of entry: inhibited
[2]; primarily CXCR4-tropic viruses into CXCR4-expressing cells
  inhibition of entry: inhibited
Dual_X-tropic viruses
  inhibition of entry: substantially inhibited
dual-tropic viruses
  inhibition of entry: partially inhibited
[3]; populations comprising 100% dual viruses (homogeneous) at baseline
  suppression of CXCR4-tropic virus: not suppressed
[3]; populations containing mixtures of CCR5-tropic and CXCR4-tropic or dual-tropic viruses at baseline
  suppression of CXCR4-tropic virus: experienced suppression
[3]; [4]
  entry into cells using the CXCR4 co-receptor: efficiently blocked
  entry using the CCR5 co-receptor: unaffected
